The source of these data is article PMC12040169 (PLOS Biology, 2025).

The series in a line: in vitro. Conditions: human, hela cells, % viability.
The viability is a read-out of living cells in per cent, often relative to untreated cells. As to `Cc1ccc2cc(S(=O)(=O)Nc3cccc(C(=O)O)c3)ccc2c1` [CBK299812], the viability at 28.5 h, 10 µM came to 101%.
Regarding `COc1cc(-c2nnc(CSCc3n[nH]c(=O)[nH]3)o2)cc(OC)c1OC` [CBK299814], the viability at 28.5 h, 10 µM came to 99.5%.
For the compound `Cc1nc(-c2ccc(NC(=O)C3CC=CCC3C(=O)O)cc2)cs1` (stereo not drawn) [CBK299815], the viability at 28.5 h, 10 µM was 99.4%.
For `Cc1ccc2cc(S(=O)(=O)NCCCC(=O)O)ccc2c1` [CBK299818], the viability at 28.5 h, 10 µM was found to be 95.8%.
The value for `Cc1cc(C(C)(C)C)cc(S(=O)(=O)Nc2ccc(C(=O)O)c(O)c2)c1C` [CBK299820] was 88.3%; that for `O=C(Cc1ccc(F)cc1)Nc1cccc(-c2noc(-c3ccc(F)cc3)n2)c1` [CBK299821] was 89%; that for `CC(C)COc1ccc(-c2nonc2NC(=O)c2cccs2)cc1` [CBK299822] was 103%.
The value for `O=C(O)c1ccc(NC(=O)c2cccc(NC(=O)c3cccc4ccccc34)c2)cc1` [CBK299823] was 101%.
The value for `CC(C)c1ccc(NC(=O)CSc2n[nH]c(=O)n2-c2ccccc2)cc1` [CBK299826] was 89.3%.
As to `O=C(O)c1ccc(NS(=O)(=O)c2ccc3c(c2)C(=O)c2ccccc2C3=O)cc1` [CBK299828], the viability at 28.5 h, 10 µM amounted to 88.3%.
The figure for `CC(C)COc1ccc(-c2nonc2NC(=O)c2ccccc2F)cc1` [CBK299831] is 86%; for `O=C(CSc1ncccc1C(=O)O)Nc1nnc(Cc2ccccc2)s1` [CBK299835] it is 97.1%; for `O=C(O)c1cccc(N2C(=O)c3cccc4c(Cl)ccc(c34)C2=O)c1` [CBK299836] it is 90.3%.
The figure for `CCOc1ccc(S(=O)(=O)Nc2ccc(C(=O)O)c(O)c2)cc1` [CBK299837] is 94.2%.
Turning to `CCN1C(=O)c2cccc3c(S(=O)(=O)Nc4cccc(C(=O)O)c4)ccc1c23` [CBK299838], the viability at 28.5 h, 10 µM stood at 97.5%.
The value for `Cn1c(=O)n(C)c2cc(S(=O)(=O)Nc3ccc(Cl)c(C(=O)O)c3)ccc21` [CBK299841] was 90.8%; that for `N#Cc1c(NC(=O)CSc2nnnn2-c2ccc(C(=O)O)cc2)sc2c1CCCC2` [CBK299876] was 87.6%; that for `CC(C)c1ccc(-c2csc(Nc3cccc(C(=O)O)c3)n2)cc1` [CBK299880] was 104%.
The figure for `Cc1ccc(CN2CC(C(=O)N3CCC(C(=O)O)CC3)CC2=O)cc1` (stereo not drawn) [CBK300205] is 91.8%.
Take `COc1ccc(CSc2nnc(SCc3ccc(C(=O)O)cc3)s2)cc1` [CBK300477]: the viability at 28.5 h, 10 µM was determined as 104%.
The value for `Clc1ccc(Cn2ncc3c(NCc4cccnc4)ncnc32)cc1` [CBK300478] was 94.9%; that for `Cc1ccc(OCC(=O)N2CCN(C(=O)c3ccncc3)CC2)cc1` [CBK300480] was 92.3%; that for `Cc1ccc2oc(-c3cccc(NC(=O)c4ccccc4C(=O)O)c3)nc2c1` [CBK300481] was 109%.
Take `N=C(N)NC1=NC(=O)C(CC(=O)Nc2ccc(Oc3ccccc3)cc2)S1` (stereo not drawn) [CBK300482]: the viability at 28.5 h, 10 µM came out at 105%.
The figure for `Cc1ccc(OCCSc2nc3ccccc3n2CC(=O)O)c(C(C)C)c1` [CBK300483] is 105%; for `O=C(Nc1ncc(Cc2ccc(F)cc2)s1)c1csc2c1CCCC2` [CBK300489] it is 90.2%.
The value for `CCCCOc1ccc(C(=O)N/C(=C/c2ccco2)C(=O)Nc2cccc(C(=O)O)c2)cc1` [CBK300491] was 92.4%; that for `CC(=O)NS(=O)(=O)c1ccc(NC(=O)/C=C/c2cccc([N+](=O)[O-])c2)cc1` [CBK300492] was 88.6%.
The figure for `Cc1nc(NC(=O)c2c(F)cccc2F)sc1C` [CBK300495] is 76.1%; for `COc1cc(CNc2nnn[nH]2)cc(Br)c1OCc1ccc(Cl)cc1` [CBK300496] it is 87.2%.
In the case of `O=C(O)c1cc(-c2ccc(-c3ccc(Cl)c(C(F)(F)F)c3)o2)nc2ccc(F)cc12` [CBK300501], the viability at 28.5 h, 10 µM amounted to 111%.
The figure for `O=C(CCc1ccc(-c2ccc(F)cc2)o1)Nc1ccc(C(=O)O)cc1` [CBK300502] is 99%; for `O=C(O)CCSCC(=O)c1ccc(NS(=O)(=O)c2ccccc2)cc1` [CBK300504] it is 97.5%; for `CCOc1cccc2cc(-c3cc(=O)oc4cc(C)c(O)cc34)oc12` [CBK300517] it is 95.9%.
The figure for `COc1ccc(S(=O)(=O)Nc2ccc3oc(-c4ccccc4F)cc(=O)c3c2)cc1` [CBK300518] is 90.1%.
The value for `O=C(CSc1ncnc2[nH]ncc12)c1ccc(-c2ccccc2)cc1` [CBK300519] was 88.4%; that for `Cc1ccc(C(=O)CSc2nc(O)c3nc[nH]c3n2)cc1` [CBK300520] was 119%.
For the compound `Cc1c(C(=O)O)sc2nc(SC/C=C/c3ccccc3)nc(N)c12` [CBK300523], the viability at 28.5 h, 10 µM stood at 83.4%.
`COCCNC(=O)c1nnn(-c2ccc(Br)cc2)c1C` [CBK300524]: the viability at 28.5 h, 10 µM turned out to be 93.3%.
The value for `COc1ccc(OCc2nc(C)cc(=O)n2CC(=O)NC(C)C)cc1` [CBK300525] was 99%; that for `Cc1c(C(=O)Nc2ccc(C(=O)O)cc2)nnn1-c1ccc(Cl)cc1` [CBK300532] was 84.4%; that for `Cc1ccccc1OCC(=O)N1CC(=O)Nc2ccccc21` [CBK300535] was 94%.
Consider `O=C(c1ccccc1)c1ccc2n1CCC2C(=O)N1CCN(c2ccccc2)CC1` (stereo not drawn) [CBK300536], for which the viability at 28.5 h, 10 µM is 115%.
As for `O=c1[nH]c(SCc2n[nH]c(=S)n2-c2ccccc2)nc2sc3c(c12)CCCC3` [CBK300538], the viability at 28.5 h, 10 µM was 118%.
As for `CCCCc1ccc(S(=O)(=O)c2cnc(SCC(=O)Nc3ccc(Cl)cc3)[nH]c2=O)cc1` [CBK300539], the viability at 28.5 h, 10 µM was 106%.
Turning to `O=c1[nH]nc2cc(SCc3ccc(Cl)cc3)ncn12` [CBK300540], the viability at 28.5 h, 10 µM was determined as 107%.
The value for `O=C(NCc1cccnc1)c1ccc(CSc2ccccc2)cc1` [CBK300544] was 101%.
Take `Cc1cc(=O)oc2cc(OCC(=O)Nc3ccc(S(=O)(=O)O)cc3)ccc12` [CBK301204N]: the viability at 28.5 h, 10 µM came out at 89.6%.
For `Nc1nc(SCc2nnc(S)n2-c2ccccc2)nc2sc3c(c12)CCC3` [CBK301216K], the viability at 28.5 h, 10 µM is 83.1%.
The value for `CC(C)[C@H]1N=C2C=C(C(C)(C)C)ON2[C@H]2[C@H](O)[C@H](O)C[C@H]21` [CBK303234] was 90.1%; that for `CC(C)(C)C1=CC2=NC3(CCCCC3)[C@@H]3C[C@@H](O)[C@@H](O)[C@@H]3N2O1` [CBK303235] was 111%; that for `Cn1c2c(c(=O)n(C)c1=O)[C@H]1[C@H](O)[C@H](O)C[C@H]1[C@@H](C(O)c1ccccc1)N2` (stereo partly drawn) [CBK303236] was 92.8%.
The figure for `Cn1c(/N=C(\C=N\c2cc(=O)n(C)c(=O)n2C)c2ccccc2)cc(=O)n(C)c1=O` [CBK303237] is 87.3%; for `CC(C)(C)OC(=O)N1CC2(C1)N=C1C=C(C(C)(C)C)ON1[C@H]1[C@H](O)[C@H](O)C[C@H]12` [CBK303240] it is 97.6%.
